According to BindingDB's records for doi:10.1021/jm100478y (University of North Carolina at Chapel Hill, 2010):
pIC50: −log10 of the molar value.

Molecular target: T1, Histone-lysine N-methyltransferase EHMT2 (Homo sapiens, UniProt Q96KQ7)
T1 sequence (Q96KQ7 whole entry): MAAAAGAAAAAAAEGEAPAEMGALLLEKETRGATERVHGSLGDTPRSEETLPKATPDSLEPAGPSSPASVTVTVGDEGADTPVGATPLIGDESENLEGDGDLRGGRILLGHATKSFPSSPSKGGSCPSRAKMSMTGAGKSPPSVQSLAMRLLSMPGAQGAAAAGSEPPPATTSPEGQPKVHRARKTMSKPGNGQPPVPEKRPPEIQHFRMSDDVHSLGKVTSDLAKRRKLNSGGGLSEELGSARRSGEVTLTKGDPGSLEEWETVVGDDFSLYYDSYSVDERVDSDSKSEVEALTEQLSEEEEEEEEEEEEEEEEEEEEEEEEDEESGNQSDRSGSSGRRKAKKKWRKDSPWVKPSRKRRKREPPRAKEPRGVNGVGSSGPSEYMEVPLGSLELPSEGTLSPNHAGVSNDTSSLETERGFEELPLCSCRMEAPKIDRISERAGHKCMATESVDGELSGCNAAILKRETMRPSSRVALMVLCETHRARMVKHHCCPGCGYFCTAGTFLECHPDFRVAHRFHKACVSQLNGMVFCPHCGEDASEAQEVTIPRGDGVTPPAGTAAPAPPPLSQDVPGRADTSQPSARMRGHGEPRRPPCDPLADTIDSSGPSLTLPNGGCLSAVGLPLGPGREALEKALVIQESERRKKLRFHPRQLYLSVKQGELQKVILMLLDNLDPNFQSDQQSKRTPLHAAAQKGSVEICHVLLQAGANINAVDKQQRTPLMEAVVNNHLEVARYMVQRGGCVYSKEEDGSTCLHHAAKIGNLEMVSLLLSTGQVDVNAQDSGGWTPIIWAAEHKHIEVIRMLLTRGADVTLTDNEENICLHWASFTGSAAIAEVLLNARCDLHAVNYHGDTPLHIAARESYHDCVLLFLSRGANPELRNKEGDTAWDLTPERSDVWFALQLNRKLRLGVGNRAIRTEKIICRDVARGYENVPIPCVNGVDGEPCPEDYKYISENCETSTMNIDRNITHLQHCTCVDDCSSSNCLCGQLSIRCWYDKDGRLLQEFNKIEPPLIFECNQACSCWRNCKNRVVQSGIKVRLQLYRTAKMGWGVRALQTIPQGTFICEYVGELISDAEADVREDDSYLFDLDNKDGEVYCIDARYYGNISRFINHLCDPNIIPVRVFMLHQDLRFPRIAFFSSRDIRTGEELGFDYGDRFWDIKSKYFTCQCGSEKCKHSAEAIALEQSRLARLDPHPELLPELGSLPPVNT
Test: Inhibition of methyl transferase activity of G9a assessed as inhibition of H3K9 methylation by chemiluminescence based oxygen tunneling assay

pIC50	Compound
< 5.00	COc1cc2nc(N3CCCN(C)CC3)nc(NC3CCNCC3)c2cc1OC [6,7-Dimethoxy-2-(4-methyl-1,4-diazepan-1-yl)-N-(piperidin-4-yl)quinazolin-4-amine]
< 5.00	COc1cc2nc(N3CCCN(C)CC3)nc(NC3CCOCC3)c2cc1OC [6,7-dimethoxy-2-(4-methyl-1,4-diazepan-1-yl)-N-(tetrahydro-2H-pyran-4-yl)quinazolin-4-amine]
